Results reported in publication PMC10412597, “Small molecule branched-chain ketoacid dehydrogenase kinase (BDK) inhibitors with opposing effects on BDK protein levels” (Nature Communications, 2023).

Assays:
Set-up in all cases: Cerep Bioprint off-target panel, functional receptor agonism or antagonism
Muscarinic 3 = biological target: T1, Muscarinic 3 (Homo sapiens, UniProt P20309)
T1 construct: gene CHRM3
Experimental: (§1) To discover a potent and selective BDK inhibitor, a subset of the Pfizer compound collection was screened. […] Off target activity was assessed in both CEREP and kinase panels (Supplementary Tables 2, 3).

Vasopressin 1a = biological target: T2, Vasopressin 1a (Homo sapiens, UniProt P37288); conditions: agonist
T2 construct: gene AVPR1A
T2 sequence (P37288 whole entry): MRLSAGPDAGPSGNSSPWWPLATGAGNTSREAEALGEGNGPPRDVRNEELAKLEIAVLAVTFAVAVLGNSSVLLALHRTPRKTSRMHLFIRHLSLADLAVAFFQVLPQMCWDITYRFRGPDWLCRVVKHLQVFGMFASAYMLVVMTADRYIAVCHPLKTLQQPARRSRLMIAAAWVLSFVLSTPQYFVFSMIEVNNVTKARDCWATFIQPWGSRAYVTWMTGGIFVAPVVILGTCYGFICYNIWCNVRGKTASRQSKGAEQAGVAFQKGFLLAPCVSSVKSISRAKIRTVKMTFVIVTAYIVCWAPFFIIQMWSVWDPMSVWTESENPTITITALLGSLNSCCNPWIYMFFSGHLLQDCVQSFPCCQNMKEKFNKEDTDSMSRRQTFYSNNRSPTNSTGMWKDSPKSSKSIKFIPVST
Experimental: as §1

[1] = biological target: T3, Serotonin 5-HT1b Receptor (Homo sapiens, UniProt P28222); conditions: agonist
T3 construct: gene HTR1B
T3 sequence (P28222 whole entry): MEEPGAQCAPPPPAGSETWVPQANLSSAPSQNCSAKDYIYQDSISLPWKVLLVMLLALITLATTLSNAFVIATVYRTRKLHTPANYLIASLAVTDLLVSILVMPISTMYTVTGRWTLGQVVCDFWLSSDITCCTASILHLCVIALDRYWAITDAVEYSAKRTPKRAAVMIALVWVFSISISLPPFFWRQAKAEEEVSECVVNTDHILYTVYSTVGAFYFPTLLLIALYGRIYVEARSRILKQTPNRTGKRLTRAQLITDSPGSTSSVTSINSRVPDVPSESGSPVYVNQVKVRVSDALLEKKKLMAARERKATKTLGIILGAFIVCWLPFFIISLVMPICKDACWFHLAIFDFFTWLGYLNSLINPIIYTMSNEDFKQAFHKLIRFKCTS
Experimental: as §1

[2] = biological target: T4, Adrenergic Alpha 2b Adrenoceptor (Homo sapiens, UniProt P18089)
T4 construct: gene ADRA2B
T4 sequence (P18089 1-450): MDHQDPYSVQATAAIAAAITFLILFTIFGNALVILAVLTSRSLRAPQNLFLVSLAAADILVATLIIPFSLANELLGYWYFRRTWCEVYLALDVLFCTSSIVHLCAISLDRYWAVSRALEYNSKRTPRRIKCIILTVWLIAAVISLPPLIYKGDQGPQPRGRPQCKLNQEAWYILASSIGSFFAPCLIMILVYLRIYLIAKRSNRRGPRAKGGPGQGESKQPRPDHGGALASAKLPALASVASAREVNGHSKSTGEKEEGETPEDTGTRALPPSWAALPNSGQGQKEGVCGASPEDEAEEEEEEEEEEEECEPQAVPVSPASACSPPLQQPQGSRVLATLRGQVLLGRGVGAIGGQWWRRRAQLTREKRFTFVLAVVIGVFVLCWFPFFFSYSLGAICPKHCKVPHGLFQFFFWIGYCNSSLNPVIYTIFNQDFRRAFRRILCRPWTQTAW
Experimental: as §1

Dopamine D1 = biological target: T5, Dopamine D1 (Homo sapiens, UniProt P21728)
T5 construct: gene DRD1
T5 sequence (P21728 whole entry): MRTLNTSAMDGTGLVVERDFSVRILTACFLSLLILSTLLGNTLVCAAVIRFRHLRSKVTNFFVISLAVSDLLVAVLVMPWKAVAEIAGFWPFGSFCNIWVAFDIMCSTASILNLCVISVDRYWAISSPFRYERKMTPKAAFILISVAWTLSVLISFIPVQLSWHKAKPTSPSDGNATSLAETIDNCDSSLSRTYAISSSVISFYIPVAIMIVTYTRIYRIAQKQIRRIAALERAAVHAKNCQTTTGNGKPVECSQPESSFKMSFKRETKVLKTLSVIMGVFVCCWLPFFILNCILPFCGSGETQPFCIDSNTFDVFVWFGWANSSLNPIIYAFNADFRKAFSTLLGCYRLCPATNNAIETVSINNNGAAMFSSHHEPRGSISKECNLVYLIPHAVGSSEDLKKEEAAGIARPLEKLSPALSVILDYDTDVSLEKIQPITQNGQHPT
Experimental: as §1

Angiotensin 1 = biological target: T6, Angiotensin 1 (Homo sapiens, UniProt P30556)
T6 construct: gene AGTR1
T6 sequence (P30556 1-359): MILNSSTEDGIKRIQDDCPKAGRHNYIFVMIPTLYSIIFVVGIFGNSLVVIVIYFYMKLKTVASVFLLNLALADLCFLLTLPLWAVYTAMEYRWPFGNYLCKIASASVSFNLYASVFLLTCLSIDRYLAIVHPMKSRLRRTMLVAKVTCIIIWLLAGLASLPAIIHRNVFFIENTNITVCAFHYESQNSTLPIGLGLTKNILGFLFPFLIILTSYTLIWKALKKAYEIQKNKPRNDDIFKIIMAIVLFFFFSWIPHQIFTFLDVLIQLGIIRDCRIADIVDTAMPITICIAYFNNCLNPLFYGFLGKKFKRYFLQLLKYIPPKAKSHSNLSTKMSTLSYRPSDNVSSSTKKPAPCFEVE
Experimental: as §1

Muscarinic 1 = biological target: T7, Muscarinic 1 (Homo sapiens, UniProt P11229)
T7 construct: gene CHRM1
T7 sequence (P11229 1-460): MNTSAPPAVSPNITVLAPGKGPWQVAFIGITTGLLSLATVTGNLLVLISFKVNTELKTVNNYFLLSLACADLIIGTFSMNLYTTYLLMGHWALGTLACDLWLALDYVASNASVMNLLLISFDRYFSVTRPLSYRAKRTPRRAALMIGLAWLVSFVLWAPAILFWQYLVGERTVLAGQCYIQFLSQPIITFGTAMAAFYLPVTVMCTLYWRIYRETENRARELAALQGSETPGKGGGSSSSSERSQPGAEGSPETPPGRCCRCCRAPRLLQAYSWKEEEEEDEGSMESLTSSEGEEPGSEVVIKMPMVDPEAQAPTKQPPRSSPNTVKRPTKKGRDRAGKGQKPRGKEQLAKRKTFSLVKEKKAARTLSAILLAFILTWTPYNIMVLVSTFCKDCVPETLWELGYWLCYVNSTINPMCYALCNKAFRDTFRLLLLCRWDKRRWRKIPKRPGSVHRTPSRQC
Experimental: as §1

Histamine H3 = biological target: T8, Histamine H3 (Homo sapiens, UniProt Q9Y5N1); conditions: agonist
T8 construct: gene HRH3
T8 sequence (Q9Y5N1 whole entry): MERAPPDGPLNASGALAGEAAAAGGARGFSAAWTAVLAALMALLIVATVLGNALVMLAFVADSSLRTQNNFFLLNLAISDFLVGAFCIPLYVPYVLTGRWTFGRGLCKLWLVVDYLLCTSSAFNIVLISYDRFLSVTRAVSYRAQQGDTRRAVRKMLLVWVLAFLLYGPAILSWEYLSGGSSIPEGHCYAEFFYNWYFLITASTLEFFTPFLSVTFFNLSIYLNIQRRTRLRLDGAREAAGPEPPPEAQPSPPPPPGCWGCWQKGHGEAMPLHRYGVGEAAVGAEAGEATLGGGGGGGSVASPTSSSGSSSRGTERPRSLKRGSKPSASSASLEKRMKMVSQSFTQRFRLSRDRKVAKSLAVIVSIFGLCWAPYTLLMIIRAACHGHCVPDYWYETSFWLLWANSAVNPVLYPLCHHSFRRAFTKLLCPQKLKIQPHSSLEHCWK
Experimental: as §1

Mu Opioid = biological target: T9, Mu Opioid (Homo sapiens, UniProt P35372); conditions: agonist
T9 construct: gene OPRM1
T9 sequence (P35372 whole entry): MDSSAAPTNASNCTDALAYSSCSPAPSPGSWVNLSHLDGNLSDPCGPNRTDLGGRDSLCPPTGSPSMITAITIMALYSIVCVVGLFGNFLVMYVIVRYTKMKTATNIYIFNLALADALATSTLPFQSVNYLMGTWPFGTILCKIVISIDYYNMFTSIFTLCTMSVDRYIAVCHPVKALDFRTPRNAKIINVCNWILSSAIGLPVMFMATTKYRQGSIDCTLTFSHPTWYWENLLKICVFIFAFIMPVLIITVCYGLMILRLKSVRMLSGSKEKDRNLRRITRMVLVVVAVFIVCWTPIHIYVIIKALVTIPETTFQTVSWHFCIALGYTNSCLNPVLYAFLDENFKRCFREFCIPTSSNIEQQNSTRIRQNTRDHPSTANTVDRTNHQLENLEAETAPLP
Experimental: as §1

[3] = biological target: T10, Adrenergic Alpha 2a receptor (Homo sapiens, UniProt P08913); conditions: agonist
T10 construct: gene ADRA2A
T10 sequence (P08913 whole entry): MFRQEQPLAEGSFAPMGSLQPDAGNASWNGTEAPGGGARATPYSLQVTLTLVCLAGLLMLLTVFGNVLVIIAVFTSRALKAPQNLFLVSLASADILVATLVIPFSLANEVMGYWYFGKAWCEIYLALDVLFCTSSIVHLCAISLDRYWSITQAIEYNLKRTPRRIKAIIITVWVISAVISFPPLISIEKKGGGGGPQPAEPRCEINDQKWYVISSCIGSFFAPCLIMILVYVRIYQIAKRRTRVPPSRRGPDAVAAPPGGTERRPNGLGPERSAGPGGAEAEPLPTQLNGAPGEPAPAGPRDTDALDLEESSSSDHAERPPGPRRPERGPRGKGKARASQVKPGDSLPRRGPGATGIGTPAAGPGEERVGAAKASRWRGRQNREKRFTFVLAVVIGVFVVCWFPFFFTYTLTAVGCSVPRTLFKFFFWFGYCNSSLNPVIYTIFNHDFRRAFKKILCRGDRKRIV
Experimental: as §1

Endothelin A = biological target: T11, Endothelin A (Homo sapiens, UniProt P25101); conditions: agonist
T11 construct: gene EDNRA
T11 sequence (P25101 whole entry): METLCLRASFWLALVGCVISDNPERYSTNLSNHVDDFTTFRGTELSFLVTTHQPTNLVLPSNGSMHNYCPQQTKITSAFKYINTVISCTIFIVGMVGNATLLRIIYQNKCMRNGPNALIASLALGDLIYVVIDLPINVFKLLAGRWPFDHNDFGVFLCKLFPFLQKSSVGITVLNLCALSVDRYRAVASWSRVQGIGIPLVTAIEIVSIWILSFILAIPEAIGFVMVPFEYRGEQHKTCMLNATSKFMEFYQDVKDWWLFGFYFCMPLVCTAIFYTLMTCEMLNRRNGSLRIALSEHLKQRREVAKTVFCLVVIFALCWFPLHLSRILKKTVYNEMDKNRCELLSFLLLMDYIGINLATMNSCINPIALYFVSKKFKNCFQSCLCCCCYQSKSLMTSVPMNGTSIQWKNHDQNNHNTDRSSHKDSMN
Experimental: as §1

[4] = biological target: T12, Thyrotopin Releasing Hormone 1 (TRH1) Receptor (Homo sapiens, UniProt P34981)
T12 construct: gene TRHR
T12 sequence (P34981 1-398): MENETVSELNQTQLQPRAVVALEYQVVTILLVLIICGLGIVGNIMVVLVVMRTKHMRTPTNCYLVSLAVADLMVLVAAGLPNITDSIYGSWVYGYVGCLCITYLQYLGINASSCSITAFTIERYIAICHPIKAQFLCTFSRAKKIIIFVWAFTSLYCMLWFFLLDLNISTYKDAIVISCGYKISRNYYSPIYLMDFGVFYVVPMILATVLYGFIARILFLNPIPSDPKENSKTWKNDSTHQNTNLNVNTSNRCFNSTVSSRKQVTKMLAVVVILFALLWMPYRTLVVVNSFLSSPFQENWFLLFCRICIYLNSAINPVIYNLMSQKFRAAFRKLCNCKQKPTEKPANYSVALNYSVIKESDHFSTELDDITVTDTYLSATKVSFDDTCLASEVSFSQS
Experimental: as §1

T1 sequence (P20309 whole entry): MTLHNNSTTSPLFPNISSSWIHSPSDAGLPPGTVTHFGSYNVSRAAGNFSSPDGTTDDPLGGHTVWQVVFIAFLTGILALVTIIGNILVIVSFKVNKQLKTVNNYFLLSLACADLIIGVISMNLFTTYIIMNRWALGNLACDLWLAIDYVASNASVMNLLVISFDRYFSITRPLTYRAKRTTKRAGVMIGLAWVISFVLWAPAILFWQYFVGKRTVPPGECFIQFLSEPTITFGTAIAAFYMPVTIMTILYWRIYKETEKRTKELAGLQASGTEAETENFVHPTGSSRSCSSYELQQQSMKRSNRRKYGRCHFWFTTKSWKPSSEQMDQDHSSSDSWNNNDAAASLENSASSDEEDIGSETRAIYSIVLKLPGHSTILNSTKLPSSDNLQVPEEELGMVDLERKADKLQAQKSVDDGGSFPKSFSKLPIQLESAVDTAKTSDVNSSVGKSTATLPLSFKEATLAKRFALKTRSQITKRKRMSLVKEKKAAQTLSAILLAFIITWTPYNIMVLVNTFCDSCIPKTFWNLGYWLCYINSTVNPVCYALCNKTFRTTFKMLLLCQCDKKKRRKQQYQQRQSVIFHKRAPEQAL

Question: Which results are given for `CCC1(COc2ccc(-c3csc(-c4ccccc4C(=O)O)n3)cn2)CC1` [PF-07247685, 2-(4-{6-[(1-ethylcyclopropyl)methoxy]pyridin-3-yl}-1,3-thiazol-2-yl)benzoic acid]?
Answer: % (agonism) PF-07247685 (Muscarinic 3; 10 µM, agonist): -1%; % Inhibition (antagonism) PF-07247685 (Muscarinic 3; 10 µM, antagonist): 3%; % (agonism) PF-07247685 (Vasopressin 1a; 10 µM): -1%; % (agonism) PF-07247685 ([1]; 10 µM): 34%; % (agonism) PF-07247685 ([2]; 10 µM, agonist): -1%; % Inhibition (antagonism) PF-07247685 ([2]; 10 µM, antagonist): -1%; % (agonism) PF-07247685 (Dopamine D1; 10 µM, agonist): 4%; % Inhibition (antagonism) PF-07247685 (Dopamine D1; 10 µM, antagonist): 5%; % (agonism) PF-07247685 (Angiotensin 1; 10 µM, agonist): -8%; % Inhibition (antagonism) PF-07247685 (Angiotensin 1; 10 µM, antagonist): 5%; % (agonism) PF-07247685 (Muscarinic 1; 10 µM, agonist): 1%; % Inhibition (antagonism) PF-07247685 (Muscarinic 1; 10 µM, antagonist): 9%; % (agonism) PF-07247685 (Histamine H3; 10 µM): 4%; % (agonism) PF-07247685 (Mu Opioid; 10 µM): -3%; % (agonism) PF-07247685 ([3]; 10 µM): 0%; % (agonism) PF-07247685 (Endothelin A; 10 µM): -4%; % (agonism) PF-07247685 ([4]; 10 µM, agonist): 4%; % Inhibition (antagonism) PF-07247685 ([4]; 10 µM, antagonist): 10%

Question: `O=C(O)c1sc2cc(F)sc2c1Cl` [PF-07208254, 3-chloro-5-fluorothieno[3,2-b]thiophene-2-carboxylic acid] was tested. Which “% (agonism) PF-07208254” value (Muscarinic 3; 100 µM, agonist) did it give?
Answer: 0%

Question: And the “% Inhibition (antagonism) PF-07208254” value (Muscarinic 3; 100 µM, antagonist)?
Answer: 18%

Question: What about the “% (agonism) PF-07208254” value (Vasopressin 1a; 100 µM) of the same compound?
Answer: 16%

Question: And the “% (agonism) PF-07208254” value ([1]; 100 µM)?
Answer: 39%

Question: And the “% (agonism) PF-07208254” value ([2]; 100 µM, agonist)?
Answer: -4%

Question: What about the “% Inhibition (antagonism) PF-07208254” value ([2]; 100 µM, antagonist) of the same compound?
Answer: -2%

Question: What about the “% (agonism) PF-07208254” value (Dopamine D1; 100 µM, agonist) of the same compound?
Answer: -4%

Question: And the “% Inhibition (antagonism) PF-07208254” value (Dopamine D1; 100 µM, antagonist)?
Answer: -5%

Question: What about the “% (agonism) PF-07208254” value (Angiotensin 1; 100 µM, agonist) of the same compound?
Answer: 3%

Question: And the “% Inhibition (antagonism) PF-07208254” value (Angiotensin 1; 100 µM, antagonist)?
Answer: 18%

Question: And the “% (agonism) PF-07208254” value (Muscarinic 1; 100 µM, agonist)?
Answer: -1%

Question: What about the “% Inhibition (antagonism) PF-07208254” value (Muscarinic 1; 100 µM, antagonist) of the same compound?
Answer: 0%

Question: What about the “% (agonism) PF-07208254” value (Histamine H3; 100 µM) of the same compound?
Answer: 15%

Question: What about the “% (agonism) PF-07208254” value (Mu Opioid; 100 µM) of the same compound?
Answer: 16%

Question: And the “% (agonism) PF-07208254” value ([3]; 100 µM)?
Answer: -1%

Question: And the “% (agonism) PF-07208254” value (Endothelin A; 100 µM)?
Answer: 4%

Question: What about the “% (agonism) PF-07208254” value ([4]; 100 µM, agonist) of the same compound?
Answer: 4%

Question: What about the “% Inhibition (antagonism) PF-07208254” value ([4]; 100 µM, antagonist) of the same compound?
Answer: -5%
